Test results published in patent US20250136641A1, “PEPTIDES AND COMPOSITIONS FOR USE IN COSMETICS, FOOD AND MEDICINE” (priority 2022, published 2025).
Ends that are not written are not given here.

Legend:
[1] = system: inflammation-related genes; assay: Expression of inflammation-related genes (RT-qPCR) in HEKa cells; type: cell-based, human; conditions: 0.01 mg/mL peptide, vs untreated basal sample
[2] = system: inflammation-related miRNAs; assay: Expression of inflammation-related miRNAs (RT-qPCR) in HEKa cells; type: cell-based, human; conditions: 0.01 mg/mL peptide, 24 h, vs untreated basal sample
[3] = system: IL-8; assay: IL-8 secretion by HaCaT keratinocytes (ELISA), with or without IFNγ; type: cell-based, human
[4] = system: HDFa73 (HDFa from adult); assay: Telomere length in HDFa cells (qPCR); type: cell-based, human; conditions: 48 hours
[5] = system: Nrf2; assay: Subcellular localization of Nrf2 in HEKa cells (immunofluorescence); type: cell-based, human; conditions: 0.01 or 0.05 mg/mL peptide, 24 hours, vs untreated cells
[6] = system: TLR2; assay: TLR2 levels in human epidermal keratinocytes after IFNγ (ELISA); type: cell-based
[7] = system: catalase; assay: Levels or synthesis of catalase enzyme in HEKa cells (ELISA); type: cell-based, human; conditions: 24 hours
[8] = system: TRF1; assay: TRF1 levels in CHA9.3 cells (immunofluorescence); type: cell-based; conditions: 0.125 mg/mL peptide, 24-hour incubation, vs DMSO control
[9] = system: TRF1; assay: TRF1 foci per cell in HEKa cells (immunofluorescence); type: cell-based, human; conditions: basal condition, 0.005 mg/mL peptide, vs untreated
[10] = system: 53BP1; assay: DNA damage (53BP1 foci) under oxidative stress in HEKa cells; type: cell-based, human; conditions: 100 μM H2O2, 0.01 or 0.05 mg/mL peptide, vs cells treated only with H2O2

Question: Which HMOX1 gene expression ([1]; 6 h) does the source give for GYYELND-NH2 [SEQ ID NO: 2-NH2] here?
Answer: upregulation

Question: And the IRAK3 gene expression ([1]; 6 h)?
Answer: upregulation

Question: And the TNFAIP3 gene expression ([1]; 6 h)?
Answer: upregulation

Question: And the TOLLP gene expression ([1]; 6 h)?
Answer: upregulation

Question: And the CXCL8 gene expression ([1]; 24 h)?
Answer: downregulated

Question: What about the IL1B gene expression ([1]; 24 h) of the same substance?
Answer: downregulated

Question: And the IL6 gene expression ([1]; 24 h)?
Answer: downregulated

Question: And the MMP3 gene expression ([1]; 24 h)?
Answer: downregulated

Question: What about the NFKB1 gene expression ([1]; 24 h) of the same substance?
Answer: downregulated

Question: And the NQO1 gene expression ([1]; 24 h)?
Answer: upregulated

Question: What about the TLR2 gene expression ([1]; 24 h) of the same substance?
Answer: downregulated

Question: What about the TNF gene expression ([1]; 24 h) of the same substance?
Answer: downregulated

Question: And the miR-21-5p expression [2]?
Answer: upregulate

Question: What about the miR-146a-5p expression [2] of the same substance?
Answer: upregulate

Question: And the “secretion of IL-8 under inflammatory conditions” value ([3]; 48 hours, 0.005, 0.01 or 0.05 mg/mL together with IFNγ at 10 ng/mL, compared to positive control (IFNγ alone))?
Answer: decrease, in a dose-dependent manner

Question: And the “secretion of IL-8 under basal conditions” value ([3]; without IFNγ, all concentrations tested (SEQ ID NO: 2-NH2 0.005, 0.01, 0.05 mg/mL; SEQ ID NO: 3-NH2 0.01, 0.05 mg/mL), vs untreated cells)?
Answer: decreased the secretion of IL-8 in a dose-dependent manner but at a lower degree that under inflammatory conditions

Question: And the “telomeres longer than untreated HDFa73” value ([4]; 0.005 mg/mL peptide)?
Answer: 17%

Question: And the “telomeres longer than untreated HDFa73” value ([4]; 0.01 mg/mL peptide)?
Answer: 30%

Question: What about the “Nrf2 translocation into the nuclei” value [5] of the same substance?
Answer: Nrf2 translocation from the cytoplasm to the nuclei in a concentration dependent manner

Question: What about the “decrease in levels of TLR2” value ([6]; HEKa cells after IFNγ, highest peptide concentration (0.05 mg/mL), 24 hours) of the same substance?
Answer: 19%

Question: What about the “levels of TLR2” value ([6]; HEKa cells, 24 hours 10 ng/mL IFNγ, then 0.01 or 0.05 mg/mL peptide for 24 hours) of the same substance?
Answer: lower the levels of TLR2 after exposure to IFNγ in a dose dependent-manner

Question: What about the levels of catalase ([7]; HEKa cells, 0.005, 0.01 or 0.05 mg/mL peptide, catalase/total protein vs basal) of the same substance?
Answer: increase the levels of catalase in a dose-dependent manner

Question: And the “increase in levels of catalase” value ([7]; HEKa cells, highest concentration (0.05 mg/mL), vs basal)?
Answer: 47%

Question: What about the TRF1 intensity [8] of the same substance?
Answer: increase in TRF1

Question: And the “TRF1 foci per cell” value [9]?
Answer: increase in TRF1

Question: What about the “53BP1 foci per cell” value [10] of the same substance?
Answer: decrease in 53BP1 foci
